Measured values published in patent US12435079B2, “Bruton's tyrosine kinase inhibitors” (priority 2019, dated 2025).

Target: T1, BTK (Homo sapiens, UniProt Q06187)
T1 construct: purchased Promega V2941
Assay: BTK Kinase Assay (ADP-Glo)
Type: biochemical
Conditions: BTK enzyme, 50 μM ATP, one hour incubation, ADP-Glo luminescence; read-out: BTK Inhibition
Protocol: The BTK assay is performed using the BTK Kinase Enzyme System (Promega; Catalog #: V2941) and ADP-Glo™ Kinase Assay kit (Promega; Catalog #: V9101). Measurement were performed in a reaction volume of 5 μL using 384-well assay plate (Corning; Catalog #: 3570). 6 ng BTK enzyme, inhibitor or 1% DMSO, 1 μg Poly(Glu4, Tyr1) peptide, and 50 μM ATP were incubated in a reaction buffer composed of 40 mM Tris-Cl (pH7.5), 20 mM MgCl2, 0.1 mg/mL BSA, 50 μM DTT and 2 mM MnCl2 for one hour. ADP was detected as described in ADP-Glo™ Kinase Assay kit using 5 μl of ADP-Glo™ Reagent and 10 μl of Kinase Detection Reagent. Luminescence was recorded using a multimode plate reader (EnVision® Multilabel Reader, Perkin Elmer). There is a linear relationship between the luminescent signal and the amount of ADP in the reaction buffer. For each compound, enzyme activity was measured at various concentrations of compound, Negative control reactions were performed in the absence of inhibitor in three replicates and six no enzyme controls were used to determine baseline luminescence levels. Dose response curve were generated to determine the concentration required for IC50 of BTK activity.
The compound numbers correspond to the compound numbers in previous Tables. Compounds having an activity designated as “A” provided an IC 50≤10 nM; Compounds having an activity designated as “B” provided an IC50 10-100 nM; Compounds having an activity designated as “C” provided an IC50 100-1000 nM; Compounds having an activity designated as “D” provided an IC50 1000-10000 nM; Compounds having an activity designated as “E” provided an IC50≥10000 nM.

T1 sequence (Q06187 whole entry): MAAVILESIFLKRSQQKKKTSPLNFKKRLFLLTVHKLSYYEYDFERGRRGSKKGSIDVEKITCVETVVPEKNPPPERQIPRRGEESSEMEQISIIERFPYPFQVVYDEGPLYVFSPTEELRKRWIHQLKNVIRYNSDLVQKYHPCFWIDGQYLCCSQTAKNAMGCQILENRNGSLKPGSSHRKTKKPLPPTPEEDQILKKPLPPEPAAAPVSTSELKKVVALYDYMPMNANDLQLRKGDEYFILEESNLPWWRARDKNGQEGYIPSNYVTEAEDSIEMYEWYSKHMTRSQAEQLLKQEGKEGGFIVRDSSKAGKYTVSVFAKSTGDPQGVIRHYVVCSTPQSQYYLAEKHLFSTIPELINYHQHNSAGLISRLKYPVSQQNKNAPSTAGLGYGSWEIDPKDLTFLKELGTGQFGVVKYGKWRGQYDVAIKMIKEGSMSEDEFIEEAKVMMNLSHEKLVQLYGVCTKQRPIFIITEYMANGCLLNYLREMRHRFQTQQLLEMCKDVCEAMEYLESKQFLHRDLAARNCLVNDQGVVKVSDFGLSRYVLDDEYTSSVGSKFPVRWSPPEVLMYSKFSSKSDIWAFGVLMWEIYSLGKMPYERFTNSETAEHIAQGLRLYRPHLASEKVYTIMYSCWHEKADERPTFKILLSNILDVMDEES

IC50 [nM] | Structure (SMILES)
≤ 10 | Nc1nccn2c(C3CCCC(O)C3)nc(-c3ccc(Oc4ccccc4)cc3)c12 (stereo not drawn) [Compound 1, 3-[8-Amino-1-(4-phenoxy-phenyl)-imidazo[1,5-a]pyrazin-3-yl]-cyclohexanol]
≤ 10 | COc1cccc(Oc2ccc(-c3nc(C4CCC(O)CC4)n4ccnc(N)c34)cc2)c1F (stereo not drawn) [Compound 2, 4-{8-Amino-1-[4-(2-fluoro-3-methoxy-phenoxy)-phenyl]-imidazo[1,5-a]pyrazin-3-yl}-cyclohexanol]
≤ 10 | COc1cccc(Oc2ccc(-c3nc([C@@H]4CCC[C@@H](O)C4)n4ccnc(N)c34)cc2)c1F [Compound 4]
≤ 10 | Nc1nccn2c1c(-c1ccc(Oc3ccccc3)cc1)nc2[C@H]1CC[C@H](O)CC1 [Compound 5, 4-[8-Amino-1-(4-phenoxy-phenyl)-imidazo[1,5-a]pyrazin-3-yl]-cyclohexanol]
≤ 10 | Nc1nccn2c(C3CCC(O)CC3)nc(-c3ccc(Oc4cccc(Cl)c4F)cc3)c12 (stereo not drawn) [Compound 6, 4-{8-Amino-1-[4-(3-chloro-2-fluoro-phenoxy)-phenyl]-imidazo[1,5-a]pyrazin-3-yl}-cyclohexanol]
10 to 100 | Nc1nccn2c(C3CCC(O)CC3)nc(-c3ccc(Oc4cccc(Cl)c4)cc3)c12 (stereo not drawn) [Compound 7]
≤ 10 | Cc1cccc(Oc2ccc(-c3nc(C4CCC(O)CC4)n4ccnc(N)c34)cc2)c1 (stereo not drawn) [Compound 8, 4-[8-Amino-1-(4-m-tolyloxy-phenyl)-imidazo[1,5-a]pyrazin-3-yl]-cyclohexanol]
10 to 100 | COc1cccc(Oc2ccc(-c3nc(C4CCC(O)CC4)n4ccnc(N)c34)cc2)c1C (stereo not drawn) [Compound 9, 4-{8-Amino-1-[4-(3-methoxy-2-methyl-phenoxy)-phenyl]-imidazo[1,5-a]pyrazin-3-yl}-cyclohexanol]
≤ 10 | COc1ccccc1C(=O)NCc1ccc(-c2nc(C3CCC(O)CC3)n3ccnc(N)c23)cc1 (stereo not drawn) [Compound 11]
